How the values were obtained:
Phytophthora infestans = experiment: whole plant or invertebrate; assay type: in vivo; settings: in Solanum lycopersicum, foliar, 96 h, read-out: control of fungal infection, Phytophthora infestans
Plasmopara viticola = experiment: Leaf disk assay, Plasmopara viticola (downy mildew of grapevine), preventive; assay type: in vivo; settings: foliar, 168 h, grapevine leaf disks, assessed seven days after inoculation, read-out: control of fungal infection, Plasmopara viticola
Botrytis cinerea = experiment: Leaf disk assay, Botrytis cinerea (grey mould) on bean, preventive; assay type: in vivo; settings: foliar, 96 h, bean leaf disks, assessed four days after inoculation, read-out: control of fungal infection, Botrytis cinerea
[1] = test system: Erysiphe graminis f.sp. tritici; experiment: Leaf disk assay, Erysiphe graminis f.sp. tritici (wheat powdery mildew), preventive; assay type: in vivo; settings: Blumeria graminis, foliar, 96 h, wheat leaf segments, assessed four days after inoculation, read-out: control of fungal infection, Erysiphe graminis f.sp. tritici
Summary of the method: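 Preventive protocol: compound at 200 ppm in water (from DMSO) sprayed onto wheat leaf segments on agar, dried 12–24 h, then spore-inoculated. Fungicidal activity was assessed four days post-inoculation.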

Pyricularia oryzae = experiment: whole plant or invertebrate; assay type: in vivo; settings: foliar, 96 h, read-out: control of fungal infection, Pyricularia oryzae
[2] = test system: Puccinia recondita f.sp. tritici; experiment: Leaf disk assay, Puccinia recondita f.sp. tritici (wheat brown rust), preventive; assay type: in vivo; settings: foliar, 216 h, wheat leaf segments, assessed nine days after inoculation, read-out: control of fungal infection, Puccinia recondita f.sp. tritici
Pyrenophora teres = experiment: Leaf disk assay, Pyrenophora teres (barley net blotch), preventive; assay type: in vivo; settings: foliar, 96 h, barley leaf segments, assessed four days after inoculation, read-out: control of fungal infection, Pyrenophora teres
Summary of the method: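 Barley leaf segments on agar were sprayed with compound at 200 ppm (from DMSO stock diluted in water) and dried for 12-24 h before inoculation with a Pyrenophora teres spore suspension. Preventive fungicidal activity was scored 4 days after inoculation.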

Septoria nodorum = experiment: Leaf disk assay, Septoria nodorum (wheat glume blotch), preventive; assay type: in vivo; settings: Parastagonospora nodorum, foliar, 96 h, wheat leaf segments, assessed four days after inoculation, read-out: control of fungal infection, Septoria nodorum
Septoria tritici = experiment: Growth inhibition in nutrient broth, Septoria tritici (leaf blotch), photometric; assay type: cell-based; settings: Zymoseptoria tritici, PDB broth, 24 C, 72 hrs, read-out: control of fungal infection, Septoria tritici
Fusarium culmorum = experiment: Growth inhibition in nutrient broth, Fusarium culmorum (root rot), photometric; assay type: cell-based; settings: 48 h, read-out: control of fungal infection, Fusarium culmorum
Summary of the method: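 Fusarium culmorum conidia in potato dextrose broth were added to compounds in DMSO. Plates were incubated at 24 C for 48 hrs, with growth inhibition read photometrically. […]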

Pythium ultimum = experiment: Growth inhibition in potato dextrose broth, Pythium ultimum (damping off), photometric; assay type: cell-based; settings: Globisporangium ultimum, 24° C., 48 hours, read-out: control of fungal infection, Pythium ultimum
Summary of the method: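 Growth inhibition was read photometrically at 48 hours after incubation at 24° C. Test compound was diluted from DMSO to 20 ppm in water and combined with potato dextrose broth seeded with Pythium ultimum mycelial fragments.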

C#CCOCC(C)(C)NC(=O)C(Oc1cc(C)c2ncc(C#C)cc2c1)SC (centres unmarked) [Example 14]
≥ 60%: pest or weed control at 200 ppm (Phytophthora infestans) | pest or weed control at 200 ppm (Plasmopara viticola) | pest or weed control at 200 ppm (Botrytis cinerea) | pest or weed control at 200 ppm [1] | pest or weed control at 200 ppm (Pyricularia oryzae) | pest or weed control at 200 ppm [2] | pest or weed control at 200 ppm (Pyrenophora teres) | pest or weed control at 200 ppm (Septoria nodorum) | inhibition of growth at 60 ppm (Septoria tritici) | inhibition of growth at 60 ppm (Fusarium culmorum) | inhibition of growth at 20 ppm (Pythium ultimum)

Reference: patent US8415272B2, “Quinoline derivatives and their use as fungicides” (Syngenta Crop Protection LLC, priority 2008, dated 2013)
